Data set [1] concerns interaction between mTOR and Rheb / mTOR signaling. As to the kind of experiment: IP analysis of HA-RhebQ64L transfected cells treated with 1-butanol, t-butanol, PA, rapamycin. The format is cell-based. The protocol: (§1) After harvesting COS7 cells, total extracts were prepared by brief sonication in ice-cold lysis buffer (40 mM HEPES pH7.5, 120 mM NaCl, 1 mM EDTA, 10 mM pyrophosphate, 10 mM glycerophosphate, 50 mM NaF, 1.5 mM Na3VO4, 0.5% CHAPS, 1 mM PMSF, protease inhibitor cocktails). Clarified extracts were mixed with 2 μg of the respective antibodies. Then protein A-Sepharose beads were added to isolate the antibody complex. After four washings with lysis buffer, the final immunoprecipitates were washed once with wash buffer (50 mM HEPES pH7.5, 150 mM NaCl), and then subjected to SDS-PAGE using Hyperfilm (Amersham Pharmacia Biotech), nitrocellulose membranes (Watmann), Power supply (Amersham Pharmacia Biotech), Electrophoretic Transfer unit (Hoefer Scientific Instruments), and ECL™ (Amersham Pharmacia Biotech).
This example examined the speculation that PA could increase Rheb/mTOR binding and activate mTOR through PA-dependent conformational change of mTOR.

In a further data set the test system is S6K1 phosphorylation. In words: Leucine-induced S6K1 phosphorylation (Western blot). The class given is cell-based. The protocol:
COS7 cells (ATCC, CRL-1651) were maintained in a 5% CO2 humidified atmosphere at 37° C. and fed DMEM supplemented with 10% bovine calf serum (HyClone). HEK293 cells (ATCC: CRL-1573) were fed DMEM supplemented with 10% fetal bovine serum (HyClone). Cells grown on tissue culture dishes were transiently transfected using LipofectAMINE, as described in “Park, J. B. et al. Cardiac phospholipase D2 localizes to sarcolemmal membranes and is inhibited by alpha-actinin in an ADP-ribosylation factor-reversible manner. J. Biol. Chem. 275, 21295-21301 (2000)” and “Lee, S. et al. Actin directly interacts with phospholipase D, inhibiting its activity. J. Biol. Chem. 276, 28252-28260 (2001)”, which are hereby incorporated by reference. Cells were allowed to express the recombinant proteins for 24 hr after transfection and then deprived of serum for additional 24 hr. The cells were then subjected to leucine deprivation, co-immunoprecipitation, or GST pull-down analysis. Leucine deprivation was performed as previously described 10 with minor modification. Briefly, cells were deprived of serum first for 24 hrs and then subjected to leucine deprivation in leucine-free RPMI 1640 medium. […]
A general note: In western blotting, separated proteins are transferred to a membrane and probed.

The target of another data set is T1, mTOR complex (Homo sapiens, UniProt P42345).
T1 construct: expressed in transfected cells; host or cells: The mTOR/raptor/PLD2 complex came from transfected mammalian cells; GST-Rheb was expressed in E. coli
In words: In vitro binding of purified GST-Rheb to mTOR/raptor/PLD2 immunoprecipitate. Particulars: PA 10 μM, GST-Rheb 40 nM, in the presence of GTPγS 100 μM (FIG. 13). The protocol:
After incubation at 4° C. for 2 hr, the beads were washed and then subjected to SDS-PAGE. E. coli and COS7 cells were lysed with the lysis buffer used for the co-immunoprecipitation. Hexa-histidine (His6)-tagged PLD2 was purified from detergent extracts of baculovirus-infected Sf9 cells (Invitrogen) by chelating Sepharose affinity column chromatography, as previously described in Lee, S. et al. Actin directly interacts with phospholipase D, inhibiting its activity. J. Biol. Chem. 276, 28252-28260 (2001), which is hereby incorporated by reference. […] In vitro binding analysis was done in ice-cold lysis buffer (as used for the co-immunoprecipitation but including 10% glycerol).
HA-mTOR, myc-raptor, and PLD2 were transfected and resulting lysates were immunoprecipitated with anti-HA antibody.

In the next data set the test system is mTOR pathway. Particulars: cited from earlier work.
Another data set has as its target T2, PLD2 (Homo sapiens, UniProt O14939).
T2 construct: expressed in transfected cells
In words: In vivo PLD assay (PBt formation) in PLD2wt transfected cells. The format is cell-based. Particulars: leucine-free vs leucine-added media, 0.4% 1-butanol (FIG. 16). The protocol: In vivo PLD activity was assayed by measuring the formation of phosphatidyl-butanol as described in “Lee, S. et al. Actin directly interacts with phospholipase D, inhibiting its activity. J. Biol. Chem. 276, 28252-28260 (2001)” and “Ha, S. H., Kim, D. H., Kim, I. S., Kim, J. H., Lee, M. N., Lee, H. J., Kim, J. H., Jang, S. K., Suh, P. G., Ryu, S. H. PLD2 forms a functional complex with mTOR/raptor to transduce mitogenic signals. Cell. Signal. 18 (2006) 2283-2291”, which are hereby incorporated by reference.
In brief, cells were loaded with [^3H]myristic acid (2 μCi/ml) for 8 hr and then washed twice with DMEM. Labeled cells were incubated with 0.4% butanol for 10 min to measure basal PLD activity. Total lipids were extracted with 1.2 ml of methanol:1M NaCl:chloroform (1:1:1 by volume) and then separated by thin-layer chromatography on silica gel plates. The amount of [^3H]phosphatidyl-butanol formed was expressed as a percentage of total [^3H]lipid to account for cell labeling efficiency differences.
Until now, the function of PLD2 in nutrient signaling has not been proposed. To this end, the importance of PLD2 in nutrient signaling was tested. […] Based on the result, PLD2 activity in response to nutrient levels was checked. PLD2^wt was transfected and allowed to express for 24 hr.

The test system of data set [2] is interaction between PLD2 and mTOR. As to the kind of experiment: Co-IP of endogenous PLD2 with mTOR (anti-mTOR antibody). The note with it: rapamycin: mTOR inhibition; leucine: leucine-deprived COS7 and HEK293 cells (FIG. 17). The class given is cell-based. The protocol: as §1

As to `CCCCO` [1-butanol], in data set [1] (1-butanol 0.4%, HA-RhebQ64L cells serum deprived 24 hr (FIG. 12)), the “interaction between mTOR and Rheb” value was “attenuated”. Moreover, the “stimulatory effect of leucine on S6K1” value with S6K1 phosphorylation (1-butanol treatment) is “significantly reduced”.

For `CCCCCC(=O)OC[C@H](COP(=O)(O)O)OC(=O)CCCCC` [PA, C-6 phosphatidic acid], in data set [1] (C-6 PA 100 uM (FIG. 12)), the “Rheb activation of mTOR signaling, rescue from 1-butanol-treated cells” value is “essentially required”. In addition, at mTOR complex, the “GST-Rheb binding to mTOR complex” value is “increased”. Further, the “rescue of mTOR activity by PA” value with mTOR pathway (PLD1 expression lowered) is “could rescue”. For the same compound, the “activation of mTOR pathway by PA” value with mTOR pathway (PLD2 expression lowered) was “could no longer activate”.

For `CC(C)C[C@H](N)C(=O)O` [leucine], at PLD2, the “PLD2 activity (PBt formation)” value is “reversibly regulated”. In addition, the “interaction between PLD2 and mTOR” value in data set [2] was “increased”.

With “PLD2 siRNA: 21-nucleotide siRNA duplex (SEQ ID NO: 9/10) corresponding to human PLD2 coding nucleotides 703-723 (chain 1 AAGAGGUGGCUGGUGGUGAAG; chain 2 CUUCACCACCAGCCACCUCUU; listed as RNA, chemistry not given here)”, the “effect of leucine on S6K1 phosphorylation” value with S6K1 phosphorylation (leucine deprivation 45 min, then leucine 15 min (0-100 μM FIG. 20; 100 μM FIG. 21)) is reported as “completely downregulated”.

The values are drawn from US8168177B2, “Method of regulating mammalian target-of-rapamycin activity by interaction between phospholipase D and Rheb” (Postech Academy-Industry Foundation, priority 2006, dated 2012).
